Results as given in patent US4748175A, “Pyrimido[5,4-B][1,4]oxazine derivatives and pharmaceutical compositions containing them” (priority 1985, dated 1988).
Counter-ions that a name gives are not always drawn. Like-named read-outs stand apart in the source and are kept apart here.

Columns and labels:
patients = settings: cited from earlier work
[1] = system: open-chest, anaesthetized cats; test: MCF-increasing effect in open-chest, anaesthetized cats (strain gauge arch on left ventricle); type: in vivo, cat; settings: for change in vivo at 5 mg/kg: Felis catus, iv, 5 mg/kg i.v., open-chest anaesthetized cats, read-out: Increase in MCF as % of the initial value
Experimental: (A) Investigation on anaesthetized cats
The animals were intravenously (i.v.) anaesthetized by 30 mg/kg of pentobarbital-sodium. After arranging the artificial respiration, the chest and pericardium were opened. A strain gauge arch was sutured onto the epicardial surface of the left ventricle [J. Pharm. Exp. Ther. 90, 26 (1947)]. The blood pressure was measured by a catheter inserted to the femoral artery and joined to a P 23 Db pressure transducer and electromanometer. The test compounds were administered either i.v. through a femoral vein cannule, or intraduodenally (i.d.) through the duodenum cannule. At the beginning of the experiment, 0.2 μg/kg of isoproterenol (IS) was i.v. given as an internal standard for checking the myocardial reactivity. Namely, the value of the peak MCF response can also be altered according to the individual animals in the case of each positive inotropic agent. Thus, IS was not used as a real reference drug.
The MCF responses were expressed in the percentage changes of the initial value: the effect on MCF of 5 mg/kg i.v. of the test compound was compared to that of 0.2 μg/kg i.v. of IS.

[2] = system: anaesthetized open-chest dogs; test: Investigation on anaesthetized open-chest dogs (MCF, coronary flow, blood pressure, heart rate); type: in vivo, dog
Experimental: (B) Investigation on anaesthetized dogs
The animals were i.v. anaesthetized by 35 mg/kg of pentobarbital-sodium. After opening the chest and pericardium, the lower ascending part of the left circumflex coronary artery was prepared and fitted with an electromagnetic flow probe for measuring the blood flow in the coronary artery. A strain gauge arch was placed onto the area supplied by this coronary artery for measuring the MCF. For determining the systemic blood pressure a femoral arterial cannule, for i.v. drug administration a femoral venous cannule was used. The dp/dt value was calculated from the pressure measured by a Millar type pressure transducer introduced to the left ventricle. All parameters were registered on a Beckman R 12 8-channel dynograph.

conscious cats = test: Investigation on chronically catheterized conscious cats; type: in vivo, cat; settings: oral 0.5 to 8.0 mg/kg
Excerpt: (C) Investigation on conscious cats
These animals were used according to either the method of Rabloczky and Mader ("Measurement of Systemic and Pulmonary Arterial Pressure in Conscious Animals", lecture on Congress of the International Union of Pharmacologists, Budapest, 1980) or to some modification thereof. The aorta and pulmonary artery were chronically catheterized for measuring both blood pressures. In the modification, the right ventricle was also catheterized for determining the dp/dtmax value.

Ca-ATP-ase = Ca-ATP-ase activity ex vivo after 5 days i.p. treatment; type: in vivo; settings: 2 mg/kg i.p. daily for 5 days; corrected to 1 g of heart tissue
Experimental: The activity of this enzyme was measured according to Mc Namara [J. Biochem. 75, 795 (1974)].
In another experiment, compound 22 was given in a 2 mg/kg i.p. daily dose for 5 days. After taking an ex vivo sample, the enzyme activity was found as decreased by 30% (as corrected to 1 g of heart tissue).

[3] = Acute toxicity (LD50) in mice; settings: mouse, in vivo
Excerpt: (§1) The acute toxicity data of compound 22 are given as LD50 values in Table 2.

[4] = Acute toxicity (LD50) in rats; settings: rat, in vivo
Excerpt: as §1

Na-K-ATP-ase = target: T1, Na-K-ATP-ase (Homo sapiens, UniProt P05023); test: Na-K-ATP-ase activity in sarcolemma preparations; type: biochemical; settings: 10^-7 M, 50 mM Tris-HCl pH 7.5
T1 construct: Sarcolemma preparations were made according to D. M. Bers; from tissue; host or cells: sarcolemma preparation (heart, from the cited Bers 1979 method and the context)
Experimental: (§2) Sarcolemma preparations were made according to D. M. Bers [Biochem. Biophys. Acta 555, 131 (1979)]. NADH-dichlorophenol-reductase was determined by using a Centrifi-CHEM® enzyme-analyzer. The activity of Na-K-ATP-ase was measured in 50 mM Tris-HCl (at pH 7.5). […] The activity of these enzymes was not altered by even a 10^-4 M concentration of compound 22.

[5] = system: NADH-dichlorophenol-reductase; test: NADH-dichlorophenol-reductase (NADH oxydase) activity in sarcolemma preparations; type: biochemical; settings: 10^-7 M
Experimental: as §2

[6] = system: ^45 Ca^2+ uptake into the sarcoplasma reticulum; test: 45Ca2+ uptake into the sarcoplasma reticulum in the presence of ATP; type: biochemical; settings: 10^-2 M
Excerpt: EFFECT OF COMPOUND 22 ON THE ^45 Ca^2+ UPTAKE INTO THE SARCOPLASMA RETICULUM IN THE PRESENCE OF ATP
The method of S. Harigaya [Circ. Res. 25, 761 (1969)] was used.

[7] = patients suffering from chronic heart failure

## 1-(4-hydroxyphenyl)-3-tertiary-butylamino-2-propanol [Prenalterol]
patients; chronic oral treatment
  cardiac performance: not improved
patients; given intravenously, clinics
  effect in acute cardiac insufficiency: very effective

## Cc1nc2c(c(N(CCO)Cc3ccccc3)n1)OCC(=O)N2 [Example 11]
[1]
  change in vivo at 5 mg/kg: 83%

## Cc1nc(NCCN2CCOCC2)c2c(n1)NC(=O)CO2 [Example 22, 2-Methyl-4-[2-(4-morpholinyl)-ethyl]-amino-6,7-dihydro-8H-pyrimido[5,4-b][1,4]oxazin-7-one dihydrochloride]
[1]
  change in vivo at 5 mg/kg: 70%
[2]; 1 mg/kg i.d.
  MCF increase: 35 to 40%
[2]; i.d. administration
  MCF effect relative to amrinone: at least 5 times
Conscious cats
  peak increase in dp/dtmax: about 60%
Ca-ATP-ase
  Ca-ATP-ase enzyme activity decrease, ex vivo sample: 30%
[3]; ip, Female
  LD50: 573 mg/kg
[3]; ip, Male
  LD50: 572 mg/kg
[3]; iv, Female
  LD50: 340 mg/kg
[3]; iv, Male
  LD50: 324 mg/kg
[3]; po, Female
  LD50: 1420 mg/kg
[3]; po, Male
  LD50: 1360 mg/kg
[4]; ip, Female
  LD50: 260 mg/kg
[4]; ip, Male
  LD50: 315 mg/kg
[4]; iv, Female
  LD50: 232 mg/kg
[4]; iv, Male
  LD50: 253 mg/kg
[4]; po, Female
  LD50: 810 mg/kg
[4]; po, Male
  LD50: 830 mg/kg

## Cc1nc(NCC2CN(Cc3ccccc3)CCO2)c2c(n1)NC(=O)CO2 (stereo not drawn) [Example 27, 4-[(4-Benzyl-2-morpholinyl)-methyl]-amino-2-methyl-6,7-dihydro-8H-pyrimido[5,4-b][1,4]oxazin-7-one dihydrochloride dihydrate]
[1]
  change in vivo at 5 mg/kg: 130%
[2]; 1 mg/kg i.v., dogs
  MCF increase: 40%
  coronary flow increase: 20%
  decrease in diastolic pressure: 20%
  decrease in the systemic systolic arterial blood pressure: 10%
  duration of the coronary response: 20 min
  half-life of the MCF effect: 10 min
  heart rate increase (tachycardia): 10%
[2]; 5 mg/kg i.d., dogs
  MCF increase: 30%
  duration of the MCF increase: 30 min

## CC(=O)CN1C(=O)COc2c(NCCO)nc(C)nc21 [Example 29, 4-(2-Hydroxyethyl)-amino-2-methyl-8-(2-oxopropyl)-6,7-dihydro-8H-pyrimido[5,4-b][1,4]oxazine-7-one]
[1]
  change in vivo at 5 mg/kg: 40%

## CCOC(=O)CN1C(=O)COc2c(NCCO)nc(C)nc21 [Example 37]
[1]
  change in vivo at 5 mg/kg: 55.5%
[1]; i.d., dose of both 20 mg/kg and 5 mg/kg
  positive inotropic action after i.d. administration: strong positive inotropic action
[2]; 0.5 mg/kg i.v., dogs
  MCF increase: 56%
  coronary flow increase: 34%
  decrease in the systemic arterial blood pressure: 10 to 15%
  tachycardia: 6 to 7%
[2]; 1 mg/kg i.v., dogs
  MCF increase: 46%
  coronary flow increase: 20%
  duration of the coronary response: 10 min
  heart rate increase (tachycardia): 13%
[2]; 1.0 mg/kg i.v., dogs
  decrease in the systemic arterial blood pressure: 20%
  duration of the MCF increase: 10 min
  duration of the heart rate increase: 5 min
[2]; 5 mg/kg i.d., dogs
  MCF increase: about 30%
  duration of the MCF increase: 60 min

## Cc1nc(Cl)c2c(n1)N(CC(O)CO)C(=O)CO2 (stereo not drawn) [Example 56]
[1]
  change in vivo at 5 mg/kg: 100%

## Cc1nc(N2CCOCC2)c2c(n1)N(CC(O)CO)C(=O)CO2 (stereo not drawn) [Example 57, 8-(2,3-Dihydroxypropyl)-2-methyl-4-(4-morpholinyl)-6,7-dihydro-8H-pyrimido[5,4-b][1,4]oxazin-7-one]
[1]
  change in vivo at 5 mg/kg: 45%

## Cc1nc(NCCCN2CCOCC2)c2c(n1)NC(=O)CO2 [Example 60, 2-Methyl-4-[3-(4-morpholinyl)-1-propyl]-amino-6,7-dihydro-8H-pyrimido[5,4-b][1,4]oxazin-7-one]
[1]
  change in vivo at 5 mg/kg: 51%

## Cc1nc(NCCO)c2c(n1)N(CC(=O)N1CCOCC1)C(=O)CO2 [Example 66, 4-(2-Hydroxyethyl)-amino-2-methyl-8-(4-morpholinylcarbonyl)-methyl-6,7-dihydro-8H-pyrimido[5,4-b][1,4]oxazin-7-one]
[1]
  change in vivo at 5 mg/kg: 58.3%

## CCCCOC(=O)CN1C(=O)COc2c(NCCO)nc(C)nc21 [Example 67, 8-(n-Butoxycarbonyl)methyl-4-(2-hydrocyethyl)amino-2-methyl-6,7-dihydro-8H-pyrimido[5,4-b][1,4]oxazin-7-one hydrochloride]
[1]
  change in vivo at 5 mg/kg: 37%

## Cc1nc(NCCO)c2c(n1)N(Cc1ccccc1)C(=O)CO2 [Example 69, 8-Benzyl-2-methyl-4-(2-hydroxyethyl)-amino-2-methyl-6,7-dihydro-8H-pyrimidino[5,4-b][1,4]oxazin-7-one]
[1]
  change in vivo at 5 mg/kg: 66%

## CCOC(=O)CN1C(=O)COc2c(N)nc(C)nc21 [Example 73]
[1]
  change in vivo at 5 mg/kg: 50%

## CC(C)NCC(O)c1ccc(O)c(O)c1 (stereo not drawn) [IS, isoproterenol, reference compound]
[1]; 0.2 μg/kg i.v., cats
  blood circulation parameters: did not influence
[1]; 0.2 μg/kg i.v., internal standard, cats
  MCF response: short-lasting and completely reversible

## C[C@@H]1O[C@@H](O[C@H]2C[C@@H](O)[C@]3(CO)[C@H]4[C@H](O)C[C@]5(C)[C@@H](C6=CC(=O)OC6)CC[C@]5(O)[C@@H]4CC[C@]3(O)C2)[C@H](O)[C@H](O)[C@H]1O [Ouabain]
Na-K-ATP-ase
  Na-K-ATP-ase activity: strongly inhibited
[5]
  indophenol-reductase inhibition: slightly

## CC(C)(C)NCC(O)c1ccc(O)c(CO)n1 (stereo not drawn) [Pirbuterol, 1-(5-hydroxy-6-hydroxymethyl-2-pyridyl)-2-tertiary-butylaminoethanol]
patients; longer period
  observation after a longer period of oral treatment: addiction was observed
patients; oral treatment for some weeks
  effect during oral treatment: favorable effect

## COc1cc([S+](C)[O-])ccc1-c1nc2ncccc2[nH]1 (stereo not drawn) [Sulmazole, 2-(2-methoxy-4-methylsulfinylphenyl)-1H-imidazo[4,5-b]pyridine]
patients; clinical tests
  side-effects: relatively frequent side-effects

## Nc1cc(-c2ccncc2)c[nH]c1=O [amrinone, 5-amino-(3,4'-bipyridin)-6(1H)-one]
[2]; 2 mg/kg i.v. amrinone versus 0.4 mg/kg i.v. compound 22, dogs
  positive inotropic action compared with compound 22: not more effective than that of 0.4 mg/kg of compound 22
[2]; anaesthetized open-chest dogs
  positive inotropic action after an acute myocardial ischaemia: significantly decreased
patients; [7]
  cardiac output: significantly increased
  resistance of the peripheral vessels: diminished
patients; therapeutic use
  side-effects: severe side-effects appearing in the blood picture

## Cn1c(=O)c2c(ncn2C)n(C)c1=O [caffeine]
[6]
  inhibition of Ca-uptake: ~25%
